Type in all cases: cell-based
One assay addresses T1, Kv1.3/M358T (Homo sapiens, UniProt P22001, M358T).
T1 construct: expressed in transfected cells; host or cells: CHO-K1
Description: Whole-cell patch clamp, Kv1.3 point mutant. To be noted: +30 mV stimulus, mean ± SD, n = 5, read-out: IC50, Kv1.3/M358T current. The text has this: (§1) In contrast, differences at positions 347, 355, and 358 between Kv1.3 and Kv1.1 prompted further analysis. To explore whether these discrepancies influence peptide-mediated inhibition, we substituted these residues in Kv1.3 with their homologous counterparts in Kv1.1 and assessed the MrVIII's inhibitory efficacy on these single-point mutants. […] To further investigate this, we introduced double adjacent mutations around Q355 and M358 in Kv1.3 to explore potential synergistic effects on MrVIII's inhibitory activity.
(§2) The cDNA of hKv1.1, hKv1.2, hKv1.3, rKv1.4, hKv1.5, mKv1.6, and hKv1.7 were subcloned into mammalian expression vectors pcDNA3.1 or pCMV-blank vectors, as well as other plasmids described previously ([35]). Channel mutants were generated by site-directed mutations. Briefly, the parental channel plasmid was amplified using a pair of oppositely directed primers harboring the designed mutation site, with KOD Fx (TOYOBO Co, Ltd). The resulting PCR mix was treated with FastDigest DpnI (Thermo Fisher Scientific) to remove the methylated template. Ten microliters of the digested product was then used to transform 100 μl E. coli DH5α competent cells. […]
(§3) CHO-K1 cells were selected for expressing Kv channels due to their lack of endogenous Kv channels, while HEK293 or ND7/23 cells were used for Nav and Cav channel expression. […] After 4 to 6 h transfection, cells were seeded onto poly-lysine–coated coverslips, and 24 to 36 h later, transfected cells were ready for patch-clamp analysis. […]
(§4) For Kv current recordings, the bath solution contained (in mM) the following: 140 NaCl, 5 KCl, 1 MgCl2, 2 CaCl2, 10 glucose, and 10 Hepes (pH 7.3, adjusted with NaOH), and the pipette solution contained (in mM) the following: 140 KCl, 2.5 MgCl2, 11 EGTA, and 10 Hepes (pH 7.3, adjusted with KOH). […] Whole cell conductance (G) at each depolarizing voltage (V) was determined using the equation: G = I/(V−Vrev), where I is the current amplitude, and Vrev is the reversal potential. […] The steady-state fast inactivation of Kv1.3 was measured using a two-pulses protocol. […]

The target of the next assay is T2, Kv1.3/L347I (Homo sapiens, UniProt P22001, L347I).
T2 construct: expressed in transfected cells; host or cells: CHO-K1
Nature of the assay: Whole-cell patch clamp, Kv1.3 point mutant. To be noted: +30 mV stimulus, mean ± SD, n = 5, read-out: IC50, Kv1.3/L347I current.
Description: as §1, §2, §3, §4
A general note: The patch-clamp technique gives a direct electrical read-out from membranes.

In the next assay the target is T3, Kv1.3/Q355E (Homo sapiens, UniProt P22001, Q355E).
T3 construct: expressed in transfected cells; host or cells: CHO-K1
Nature of the assay: Whole-cell patch clamp, Kv1.3 point mutant. To be noted: +30 mV stimulus, mean ± SD, n = 5, read-out: IC50, Kv1.3/Q355E current.
Description: as §1, §2, §3, §4

Assay [1] has as its target T4, Kv1.1/1.3 S5-S6 chimeric channel (Homo sapiens, UniProt Q09470, A352P/E350D/E351D/E353T/H355G/S369T/Y379H).
T4 construct: expressed in transfected cells; host or cells: CHO-K1
Nature of the assay: Whole-cell patch clamp, chimeric channel. Particulars: +30 mV, mean ± SD.
Description: To investigate the structural determinants underlying the differential regulatory effects of MrVIII on Kv1 channels, we employed a chimeric channel strategy. Using Kv1.3 as the template, the S1-S2, S3-S4, and S5-S6 transmembrane helices and their respective linkers from Kv1.1 were inserted to generate chimeras, generating the Kv1.3/1.1 S1-S2, Kv1.3/1.1 S3-S4, and Kv1.3/1.1 S5-S6 chimeric channels. […] These findings indicate that the S3-S4 is the key determinant for the differential inhibition of Kv1.1 and Kv1.3 by MrVIII. To further validate this conclusion, we constructed a reverse chimeric channel using Kv1.1 as the template, inserting the corresponding regions from Kv1.3 into Kv1.1. […] This finding more directly illustrates the exchange of the channel's voltage-dependence phenotype in toxin inhibition by swapping this S3-S4 between Kv1.1 and Kv1.3. […] In addition to confirming the differential role of S3-S4 between Kv1.1 and Kv1.3, we also substituted the S3-S4 of Kv1.4 and Kv1.7 into Kv1.3 to analyze MrVIII's inhibition profile. […] The IC50 for Kv1.3/1.7 S3-S4 could not be fitted, and inhi%(495 ms) was only 23.1 ± 10.0% (Fig. S2, E and F). […]
as §3
For Kv current recordings, the bath solution contained (in mM) the following: 140 NaCl, 5 KCl, 1 MgCl2, 2 CaCl2, 10 glucose, and 10 Hepes (pH 7.3, adjusted with NaOH), and the pipette solution contained (in mM) the following: 140 KCl, 2.5 MgCl2, 11 EGTA, and 10 Hepes (pH 7.3, adjusted with KOH). […] Whole cell conductance (G) at each depolarizing voltage (V) was determined using the equation: G = I/(V−Vrev), where I is the current amplitude, and Vrev is the reversal potential. […]

Bridge positions count the residues as written; N and C are the ends. Peptide text beside a SMILES is read from it.

T4 sequence (Q09470 whole entry E350D/E351D/A352P/E353T/H355G/S369T/Y379H): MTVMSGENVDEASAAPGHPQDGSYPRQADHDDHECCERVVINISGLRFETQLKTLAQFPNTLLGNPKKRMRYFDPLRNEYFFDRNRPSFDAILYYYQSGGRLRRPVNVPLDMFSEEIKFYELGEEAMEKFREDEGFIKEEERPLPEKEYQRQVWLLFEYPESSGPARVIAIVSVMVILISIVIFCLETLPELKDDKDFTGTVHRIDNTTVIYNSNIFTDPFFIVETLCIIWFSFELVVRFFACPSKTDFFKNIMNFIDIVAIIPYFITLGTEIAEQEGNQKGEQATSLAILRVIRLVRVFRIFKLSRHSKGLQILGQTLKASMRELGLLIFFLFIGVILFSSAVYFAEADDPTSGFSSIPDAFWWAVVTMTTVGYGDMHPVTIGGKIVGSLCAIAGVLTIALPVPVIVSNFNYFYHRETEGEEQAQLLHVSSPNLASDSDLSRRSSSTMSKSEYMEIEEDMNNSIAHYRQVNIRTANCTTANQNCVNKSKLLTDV
T2 sequence (P22001 whole entry L347I): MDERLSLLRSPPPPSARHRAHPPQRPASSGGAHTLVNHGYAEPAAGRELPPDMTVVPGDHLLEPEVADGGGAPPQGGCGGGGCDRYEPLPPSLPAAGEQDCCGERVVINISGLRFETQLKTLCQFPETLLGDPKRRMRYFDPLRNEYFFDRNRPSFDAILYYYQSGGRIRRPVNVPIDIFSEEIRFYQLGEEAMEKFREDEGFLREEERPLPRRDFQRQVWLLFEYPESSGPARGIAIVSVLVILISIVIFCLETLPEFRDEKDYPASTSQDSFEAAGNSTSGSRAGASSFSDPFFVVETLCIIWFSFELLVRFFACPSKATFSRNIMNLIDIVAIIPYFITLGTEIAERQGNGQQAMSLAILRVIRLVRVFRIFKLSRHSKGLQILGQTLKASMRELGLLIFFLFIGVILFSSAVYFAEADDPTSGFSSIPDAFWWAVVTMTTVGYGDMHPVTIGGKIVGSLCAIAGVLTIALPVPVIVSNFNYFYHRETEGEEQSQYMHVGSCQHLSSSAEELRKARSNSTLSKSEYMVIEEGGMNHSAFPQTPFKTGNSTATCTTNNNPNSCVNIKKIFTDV
T1 sequence (P22001 whole entry M358T): as the sequence (P22001 whole entry L347I) above, with I347L, M358T counted along it
T3 sequence (P22001 whole entry Q355E): as the sequence (P22001 whole entry L347I) above, with I347L, Q355E counted along it

For `CC[C@H](C)[C@@H]1NC(=O)[C@H](Cc2ccc(O)cc2)NC(=O)[C@H](CCC(N)=O)NC(=O)[C@@H]2CCCN2C(=O)[C@@H]2CSSC[C@H](NC(=O)[C@H](C)NC(=O)[C@H](CO)NC(=O)[C@H](CCC(=O)O)NC(=O)[C@H](CCC(=O)O)NC(=O)[C@@H](N)[C@@H](C)O)C(=O)NCC(=O)NCC(=O)N[C@@H](Cc3ccccc3)C(=O)N[C@@H](CC(N)=O)C(=O)N[C@@H](C)C(=O)N[C@@H](CCCNC(=N)N)C(=O)N[C@H]3CSSC[C@H](NC1=O)C(=O)N[C@@H](CCCCN)C(=O)NCC(=O)N[C@@H](Cc1c[nH]c4ccccc14)C(=O)N[C@@H](CCCNC(=N)N)C(=O)N[C@@H]([C@@H](C)O)C(=O)N[C@@H](CCCCN)C(=O)N[C@@H](CCCNC(=N)N)C(=O)N[C@H](C(=O)N[C@@H](CC(C)C)C(=O)N[C@@H](CC(N)=O)C(=O)N1CCC[C@H]1C(=O)O)CSSC[C@H](NC(=O)[C@H](CCCCN)NC(=O)[C@H](Cc1c[nH]cn1)NC(=O)[C@H](CC(C)C)NC(=O)[C@@H]1CCCN1C3=O)C(=O)N2` [MrVIII] (H-TEESACGGFNARCPLHKCCPQYICKGWRTKRCLNP-OH; disulfide 6-19, 13-24, 18-32; N-terminus and C-terminus assumed), the IC50 is 143 ± 33 nM on Kv1.3/M358T; 14.2 ± 0.8 nM on Kv1.3/L347I; 14.2 ± 7.2 nM at Kv1.3/Q355E; 48.9 ± 26.6 nM in assay [1] (current at 50 ms, n = 4-5). Moreover, in assay [1] (current at 495 ms), the “inhi%(495 ms), Kv1.1/1.3 S5-S6 current” value was 50.1 ± 19.9%.

The record behind these values is publication PMC11984586, “A novel spider toxin as a selective antagonist of the Kv1 subfamily of voltage-gated potassium channels through gating modulation” (The Journal of Biological Chemistry, 2025).
